According to patent US20150105252A1, “SUBSTITUTED PYRAZOLES AS HERBICIDES” (E I DU PONT DE NEMOURS AND COMPANY, priority 2013, published 2015):

Experiments:
waterhemp = experiment: Test C preemergence; assay type: in vivo, Amaranthus rudis; details: preemergence; for Plant response rating, Waterhemp: 125 g ai/ha, scale 0 to 100, 0 = no effect, 100 = complete control
In short: (§1)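 Herbicidal effect is expressed as percent visual control (0–100) judged against untreated plants 13 to 15 days after treatment in the greenhouse. Preemergence pots contained seeds in a soil–sand blend; postemergence plants, 2–18 cm tall, grew in peat-based planting medium.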

corn [1] = experiment: Test A preemergence; assay type: in vivo, Zea mays; details: preemergence; for Corn plant response rating (0 to 100 scale): 125 g ai/ha, visual injury approx. 10 days after treatment; for Corn plant response rating: 500 g ai/ha, visual injury after approx. 10 days, 0 to 100 scale (0 no effect, 100 complete control)
In short: (§2)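 Visual injury ratings, 0 = no effect to 100 = complete control, taken about 10 days after treatment against untreated controls. Test chemicals, in a non-phytotoxic surfactant-containing solvent, were sprayed onto soil preemergence or onto one- to two-leaf plants (2–10 cm) postemergence, in loam–sand soil under greenhouse conditions.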

pigweed = experiment: Test C preemergence; assay type: in vivo, Amaranthus retroflexus; details: preemergence; for Plant response rating, Pigweed: 125 g ai/ha, scale 0 to 100, 0 = no effect, 100 = complete control
In short: as §1

foxtail, giant [2] = experiment: Test C preemergence; assay type: in vivo, Setaria faberii; details: preemergence; for Plant response rating, Foxtail, Giant: 125 g ai/ha, scale 0 to 100, 0 = no effect, 100 = complete control
In short: as §1

soybean = experiment: Test C preemergence; assay type: in vivo, Glycine max; details: preemergence; for Plant response rating, Soybean: 125 g ai/ha, scale 0 to 100, 0 = no effect, 100 = complete control
In short: as §1

barnyardgrass [3] = experiment: Test C preemergence; assay type: in vivo, Echinochloa crus-galli; details: preemergence; for Plant response rating, Barnyardgrass: 125 g ai/ha, scale 0 to 100, 0 = no effect, 100 = complete control
In short: as §1

foxtail, giant [4] = experiment: Test A postemergence; assay type: in vivo, Setaria faberii
In short: as §2

foxtail, giant [5] = experiment: Test A preemergence; assay type: in vivo, Setaria faberii; details: preemergence; for Foxtail, Giant plant response rating (0 to 100 scale): 125 g ai/ha, visual injury approx. 10 days after treatment; for Foxtail, Giant plant response rating: 500 g ai/ha, visual injury after approx. 10 days, 0 to 100 scale (0 no effect, 100 complete control)
In short: as §2

crabgrass, large = experiment: Test C preemergence; assay type: in vivo, Digitaria sanguinalis; details: preemergence; for Plant response rating, Crabgrass, Large: 125 g ai/ha, scale 0 to 100, 0 = no effect, 100 = complete control
In short: as §1

velvetleaf = experiment: Test C preemergence; assay type: in vivo, Abutilon theophrasti; details: preemergence; for Plant response rating, Velvetleaf: 125 g ai/ha, scale 0 to 100, 0 = no effect, 100 = complete control
In short: as §1

johnsongrass = experiment: Test C preemergence; assay type: in vivo, Sorghum halepense; details: preemergence; for Plant response rating, Johnsongrass: 125 g ai/ha, scale 0 to 100, 0 = no effect, 100 = complete control
In short: as §1

wheat = experiment: Test A postemergence; assay type: in vivo, Triticum aestivum; details: Postemergence
In short: as §2

morningglory = experiment: Test A postemergence; assay type: in vivo, Ipomoea spp.; details: Postemergence
In short: as §2

barnyardgrass [6] = experiment: Test A preemergence; assay type: in vivo, Echinochloa crus-galli; details: preemergence; for Barnyardgrass plant response rating (0 to 100 scale, 0 is no effect, 100 is complete control): 125 g ai/ha, visual injury approx. 10 days after treatment; for Barnyardgrass plant response rating: 500 g ai/ha, visual injury after approx. 10 days, 0 to 100 scale (0 no effect, 100 complete control)
In short: as §2

corn [7] = experiment: Test C preemergence; assay type: in vivo, Zea mays; details: preemergence; for Plant response rating, Corn: 125 g ai/ha, scale 0 to 100, 0 = no effect, 100 = complete control
In short: as §1

[8] = 62 g ai/ha, scale 0 to 100 (0 no effect, 100 complete control), 13 to 15 days
[9] = 250 g ai/ha, scale 0 to 100, 0 is no effect, 100 is complete control
[10] = 31 g ai/ha, visual rating, scale 0 to 100 (0 no effect, 100 complete control), 13 to 15 days
[11] = Postemergence, 500 g ai/ha, 0 to 100 scale (0 no effect, 100 complete control)
[12] = postemergence, 125 g ai/ha, about 10 days, visual rating on 0 to 100 scale (0 no effect, 100 complete control)
[13] = 125 g ai/ha, 0 to 100 scale, 0 no effect, 100 complete control
[14] = 500 g ai/ha, 0 to 100 scale (0 no effect, 100 complete control)

## CCONC(=O)c1cc(OCC)n(Cc2ccnc(C(F)(F)F)c2)n1 [Compound 195]
waterhemp; [8]
  Waterhemp plant response rating: 100
waterhemp; 13 to 15 days
  Plant response rating, Waterhemp: 100
waterhemp; [9]
  Waterhemp plant response rating: 100
Corn [1]
  Corn plant response rating (0 to 100 scale): 0
  Corn plant response rating: 90
pigweed; [8]
  Pigweed plant response rating: 98
pigweed; 13 to 15 days
  Plant response rating, Pigweed: 100
pigweed; [9]
  Pigweed plant response rating: 100
foxtail, giant [2]; [10]
  Foxtail, Giant plant response rating: 65
foxtail, giant [2]; [8]
  Foxtail, Giant plant response rating: 85
foxtail, giant [2]; 13 to 15 days
  Plant response rating, Foxtail, Giant: 100
foxtail, giant [2]; [9]
  Foxtail, Giant plant response rating: 100
soybean; [10]
  Soybean plant response rating: 5
soybean; [8]
  Soybean plant response rating: 5
soybean; 13 to 15 days
  Plant response rating, Soybean: 25
soybean; [9]
  Soybean plant response rating: 60
Barnyardgrass [3]; [10]
  Barnyardgrass plant response rating: 60
Barnyardgrass [3]; [8]
  Barnyardgrass plant response rating: 85
Barnyardgrass [3]; 13 to 15 days
  Plant response rating, Barnyardgrass: 100
Barnyardgrass [3]; [9]
  Barnyardgrass plant response rating: 100
foxtail, giant [4]; [11]
  Foxtail, Giant plant response rating: 100
foxtail, giant [4]; [12]
  Foxtail, Giant plant response rating: 80
foxtail, giant [5]
  Foxtail, Giant plant response rating (0 to 100 scale): 90
  Foxtail, Giant plant response rating: 90
crabgrass, large; [10]
  Crabgrass, Large plant response rating: 100
crabgrass, large; [8]
  Crabgrass, Large plant response rating: 95
crabgrass, large; 13 to 15 days
  Plant response rating, Crabgrass, Large: 100
crabgrass, large; [9]
  Crabgrass, Large plant response rating: 100
velvetleaf; [10]
  Velvetleaf plant response rating: 15
velvetleaf; [8]
  Velvetleaf plant response rating: 60
velvetleaf; 13 to 15 days
  Plant response rating, Velvetleaf: 100
velvetleaf; [9]
  Velvetleaf plant response rating: 100
johnsongrass; [10]
  Johnsongrass plant response rating: 5
johnsongrass; [8]
  Johnsongrass plant response rating: 30
johnsongrass; 13 to 15 days
  Plant response rating, Johnsongrass: 75
johnsongrass; [9]
  Johnsongrass plant response rating: 85
wheat; [13]
  Wheat plant response rating: 90
wheat; [14]
  Wheat plant response rating: 90
morningglory; [13]
  Morningglory plant response rating: 70
morningglory; [14]
  Morningglory plant response rating: 100
Barnyardgrass [6]
  Barnyardgrass plant response rating (0 to 100 scale, 0 is no effect, 100 is complete control): 90
  Barnyardgrass plant response rating: 100
Corn [7]; [10]
  Corn plant response rating: 25
Corn [7]; [8]
  Corn plant response rating: 45
Corn [7]; 13 to 15 days
  Plant response rating, Corn: 70
Corn [7]; [9]
  Corn plant response rating: 95

## CCNC(=O)c1cc(CC)n(Cc2ccnc(C(F)(F)F)c2)n1 [Compound 196]
waterhemp; [10]
  Waterhemp plant response rating: 100
waterhemp; [8]
  Waterhemp plant response rating: 100
waterhemp; 13 to 15 days
  Plant response rating, Waterhemp: 100
waterhemp; [9]
  Waterhemp plant response rating: 100
Corn [1]
  Corn plant response rating (0 to 100 scale): 10
  Corn plant response rating: 90
pigweed; [10]
  Pigweed plant response rating: 98
pigweed; [8]
  Pigweed plant response rating: 98
pigweed; 13 to 15 days
  Plant response rating, Pigweed: 100
pigweed; [9]
  Pigweed plant response rating: 100
foxtail, giant [2]; [10]
  Foxtail, Giant plant response rating: 98
foxtail, giant [2]; [8]
  Foxtail, Giant plant response rating: 100
foxtail, giant [2]; 13 to 15 days
  Plant response rating, Foxtail, Giant: 100
foxtail, giant [2]; [9]
  Foxtail, Giant plant response rating: 100
soybean; [10]
  Soybean plant response rating: 40
soybean; [8]
  Soybean plant response rating: 55
soybean; 13 to 15 days
  Plant response rating, Soybean: 90
soybean; [9]
  Soybean plant response rating: 98
Barnyardgrass [3]; [10]
  Barnyardgrass plant response rating: 98
Barnyardgrass [3]; [8]
  Barnyardgrass plant response rating: 100
Barnyardgrass [3]; 13 to 15 days
  Plant response rating, Barnyardgrass: 100
Barnyardgrass [3]; [9]
  Barnyardgrass plant response rating: 100
foxtail, giant [4]; [11]
  Foxtail, Giant plant response rating: 100
foxtail, giant [4]; [12]
  Foxtail, Giant plant response rating: 90
foxtail, giant [5]
  Foxtail, Giant plant response rating (0 to 100 scale): 100
  Foxtail, Giant plant response rating: 90
crabgrass, large; [10]
  Crabgrass, Large plant response rating: 98
crabgrass, large; [8]
  Crabgrass, Large plant response rating: 98
crabgrass, large; 13 to 15 days
  Plant response rating, Crabgrass, Large: 100
crabgrass, large; [9]
  Crabgrass, Large plant response rating: 100
velvetleaf; [10]
  Velvetleaf plant response rating: 40
velvetleaf; [8]
  Velvetleaf plant response rating: 100
velvetleaf; 13 to 15 days
  Plant response rating, Velvetleaf: 100
velvetleaf; [9]
  Velvetleaf plant response rating: 100
johnsongrass; [10]
  Johnsongrass plant response rating: 55
johnsongrass; [8]
  Johnsongrass plant response rating: 85
johnsongrass; 13 to 15 days
  Plant response rating, Johnsongrass: 100
johnsongrass; [9]
  Johnsongrass plant response rating: 100
wheat; [13]
  Wheat plant response rating: 40
wheat; [14]
  Wheat plant response rating: 90
morningglory; [13]
  Morningglory plant response rating: 90
morningglory; [14]
  Morningglory plant response rating: 100
Barnyardgrass [6]
  Barnyardgrass plant response rating (0 to 100 scale, 0 is no effect, 100 is complete control): 90
  Barnyardgrass plant response rating: 100
Corn [7]; [10]
  Corn plant response rating: 5
Corn [7]; [8]
  Corn plant response rating: 5
Corn [7]; 13 to 15 days
  Plant response rating, Corn: 65
Corn [7]; [9]
  Corn plant response rating: 98
